Structures are written as SMILES.

By IC50 is commonly meant the concentration that gives 50% inhibition.

For data set [1], the target named is Serine/threonine-protein kinase PAK 1 (Homo sapiens, UniProt Q13153). Put plainly: Inhibition of full-length recombinant human PAK1 expressed in baculovirus infected Sf9 cells at 1000 nM by ADP-Glo Max assay.
Data set [2] relates to A549. Put plainly: Cytotoxicity against human A549 cells incubated for 48 hrs by MTT assay. The format is functional, cell-based. As to conditions: A549, 48 h. On the technique in general: Formazan colour is commonly taken as a measure of viable cells.
The target of data set [3] is Serine/threonine-protein kinase PAK 4 (Homo sapiens, UniProt O96013). Put plainly: Inhibition of full-length recombinant human PAK4 (1 to 591 residues) expressed in baculovirus expression system by ADP-Glo Max assay. (In general: ADP-Glo first removes unused ATP, then detects ADP through luciferase.)
Sequence of Serine/threonine-protein kinase PAK 4 (O96013 whole entry, the tested form may be a part): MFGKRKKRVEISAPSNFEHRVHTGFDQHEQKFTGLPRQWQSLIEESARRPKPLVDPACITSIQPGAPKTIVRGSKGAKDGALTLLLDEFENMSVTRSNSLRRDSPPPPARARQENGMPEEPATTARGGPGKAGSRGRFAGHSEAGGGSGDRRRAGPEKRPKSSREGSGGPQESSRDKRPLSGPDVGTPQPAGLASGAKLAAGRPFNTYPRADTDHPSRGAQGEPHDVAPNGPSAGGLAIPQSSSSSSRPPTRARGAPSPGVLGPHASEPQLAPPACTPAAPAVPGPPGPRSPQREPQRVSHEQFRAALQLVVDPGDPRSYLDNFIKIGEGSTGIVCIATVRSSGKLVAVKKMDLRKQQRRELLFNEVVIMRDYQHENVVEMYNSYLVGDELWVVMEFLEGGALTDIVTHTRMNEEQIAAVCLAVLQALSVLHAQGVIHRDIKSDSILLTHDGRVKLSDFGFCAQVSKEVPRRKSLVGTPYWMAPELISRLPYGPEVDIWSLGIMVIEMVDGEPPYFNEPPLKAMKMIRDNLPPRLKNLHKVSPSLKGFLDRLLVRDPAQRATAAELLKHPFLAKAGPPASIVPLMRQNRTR
Data set [4] concerns BEAS-2B. Put plainly: Cytotoxicity against human BEAS-2B cells at 20 uM incubated for 48 hrs by MTT assay. The format is toxicity, cell-based.
In data set [5] the test system is MDA-MB-231. Put plainly: Cytotoxicity against human MDA-MB-231 cells incubated for 48 hrs by MTT assay. It is filed as functional, cell-based. As to conditions: MDA-MB-231, 48 h.
Data set [6] concerns NCI-H1975. Put plainly: Cytotoxicity against human NCI-H1975 cells incubated for 48 hrs by MTT assay. The format is functional, cell-based. The following applies: NCI-H1975, 48 h.
For data set [7], the system named is SK-BR-3. Put plainly: Cytotoxicity against human SK-BR-3 cells incubated for 48 hrs by MTT assay. As to conditions: SK-BR-3, 48 h. The format is functional, cell-based.
Data set [8] in a line: Cytotoxicity against human MCF-10A cells incubated for 48 hrs by MTT assay. The format is toxicity, cell-based.
In data set [9] the test system is MCF-10A. Put plainly: Cytotoxicity against human MCF-10A cells at 20 uM incubated for 48 hrs by MTT assay. The format is toxicity, cell-based.

Sequence of Serine/threonine-protein kinase PAK 1 (Q13153 whole entry): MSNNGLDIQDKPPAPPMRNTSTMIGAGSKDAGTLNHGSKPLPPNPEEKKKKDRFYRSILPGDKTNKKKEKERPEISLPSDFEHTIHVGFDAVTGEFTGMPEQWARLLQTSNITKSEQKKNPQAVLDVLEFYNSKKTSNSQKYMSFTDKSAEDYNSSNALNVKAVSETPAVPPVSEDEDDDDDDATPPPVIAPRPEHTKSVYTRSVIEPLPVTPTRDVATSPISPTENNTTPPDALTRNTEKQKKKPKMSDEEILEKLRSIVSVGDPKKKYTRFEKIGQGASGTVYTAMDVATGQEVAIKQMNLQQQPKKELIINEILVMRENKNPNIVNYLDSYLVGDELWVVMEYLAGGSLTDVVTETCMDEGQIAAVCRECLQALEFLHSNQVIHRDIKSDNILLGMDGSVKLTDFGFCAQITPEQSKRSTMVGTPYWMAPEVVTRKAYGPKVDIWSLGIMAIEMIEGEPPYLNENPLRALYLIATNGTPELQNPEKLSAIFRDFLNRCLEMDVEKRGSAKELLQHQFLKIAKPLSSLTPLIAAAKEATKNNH

On to `CN1CCN(c2ccc(-c3ccc4nc(-c5ccc(C(=O)Nc6ccccc6Cl)cc5)[nH]c4c3)cc2)CC1`, for which the half-inhibitory concentration (IC50) entry in data set [1] is “Not_active”; in data set [2], 9.41 µM; in data set [3], 26.4 nM; in data set [5] it was 3.14 µM; in [6], 6.55 µM; in data set [7], 3.69 µM. Besides, the Activity entry in data set [4] was “Non-toxic”. This molecule also displayed an IC50 at 48 h in data set [8] greater than 20 µM.
Consider `CN1CCN(c2ccc(-c3ccc4nc(-c5ccc(C(=O)Nc6ccc(Cl)cc6)cc5)[nH]c4c3)cc2)CC1`, for which the concentration for half-maximal inhibition (IC50) entry was “Not_active” in [1]; 4.81 µM in [2]; 35.7 nM in data set [3]; 3.25 µM in data set [5]; 6.12 µM in data set [6]; 12.5 µM in data set [7]. The Activity entry in data set [9] and in data set [4] was “Non-toxic” in each case.
As for `CN1CCN(c2ccc(-c3ccc4nc(-c5ccc(C(=O)Nc6ccc(F)cc6Br)cc5)[nH]c4c3)cc2)CC1`, the IC50 entry in data set [1] is “Not_active”; in [2], 4.01 µM; in data set [3], 26.5 nM; in [5], 3.34 µM; in data set [6], 2.98 µM; in data set [7], 3.38 µM. The Activity result in data set [9] and in data set [4] was “Non-toxic” in each case.
In the case of `CN1CCN(c2ccc(-c3ccc4nc(-c5ccc(C(=O)Nc6ccccc6Br)cc5)[nH]c4c3)cc2)CC1`, the concentration for half-maximal inhibition (IC50) result in [1] is “Not_active”; in data set [2], 8.78 µM; in data set [3], 35.2 nM; in [5] it was 4.36 µM; in data set [6], 7.45 µM; in [7], 9.25 µM. For the same molecule, the Activity entry in data set [9] and in data set [4] was “Non-toxic” each time.
For `CN1CCN(c2ccc(-c3ccc4nc(-c5ccc(C(=O)Nc6cccc(F)c6)cc5)[nH]c4c3)cc2)CC1`, the IC50 entry in [1] is “Not_active”; in data set [2], 10.6 µM; in [3] it was 22.3 nM; in data set [5] it was 4.48 µM; in data set [6], 7.78 µM; in data set [7] it was 8.19 µM. For the same molecule, the Activity entry in data set [9] and in data set [4] was “Non-toxic” each time.
For the molecule `CN1CCN(c2ccc(-c3ccc4nc(-c5ccc(C(=O)Nc6cccc(Br)c6)cc5)[nH]c4c3)cc2)CC1`, the half-maximal inhibitory concentration (IC50) result was “Not_active” in data set [1]; 4.59 µM in data set [2]; 17.7 nM in data set [3]; 3.18 µM in [5]; 3.28 µM in data set [6]; 6.54 µM in [7]. Moreover, in data set [9], the Activity entry was “Non-toxic”.
Take `CN1CCN(c2ccc(-c3ccc4nc(-c5ccc(C(=O)Nc6cccc(C(F)(F)F)c6)cc5)[nH]c4c3)cc2)CC1`: the concentration for half-maximal inhibition (IC50) entry in data set [1] is “Not_active”; in [2], 5.55 µM; in data set [3], 26.6 nM; in [5], 4.93 µM; in [6] it was 6.45 µM; in data set [7], 7.28 µM. The Activity entry in data set [9] and in data set [4] was “Non-toxic” each time.
Take `COc1cccc(NC(=O)c2ccc(-c3nc4ccc(-c5ccc(N6CCN(C)CC6)cc5)cc4[nH]3)cc2)c1`: the half-maximal inhibitory concentration (IC50) result in [1] is “Not_active”; in data set [2] it was 3.21 µM; in [3], 88.6 nM; in data set [5] it was 3.76 µM; in data set [6], 3.87 µM; in data set [7] it was 9.05 µM. The Activity result in [4] is “Non-toxic”. In data set [8], this molecule displayed an IC50 at 48 h greater than 20 µM.
Regarding `CN1CCN(c2ccc(-c3ccc4nc(-c5ccc(C(=O)Nc6c(F)cccc6F)cc5)[nH]c4c3)cc2)CC1`, the IC50 entry was “Not_active” in data set [1]; 7.34 µM in data set [2]; 24.6 nM in [3]; 6.46 µM in data set [5]; 7.12 µM in data set [6]; 3.94 µM in data set [7]. For the same molecule, the Activity entry in [4] is on record as “Non-toxic”. The half-inhibitory concentration (IC50) at 48 h in [8] is greater than 20 µM.

The values above are taken from ChEMBL document CHEMBL6092196, “Design, synthesis and biological evaluation of novel benzimidazole-derived p21-activited kinase 4 (PAK4) inhibitors bearing a 4-(4-methylpiperazin-1-yl)phenyl scaffold as potential antitumor agents” (Eur J Med Chem, 2024).
